Laboratory results: US10745429B2, “Phospholidines that are Bcl family antagonists for use in clinical management of conditions caused or mediated by senescent cells and for treating cancer” (Unity Biotechnology, Inc., priority 2018, dated 2020)
Values belong to the compound of their own block, whether it stands above or below them.

Key:
[1] = test system: 3MR and INK-ATTAC mice exposed to cigarette smoke; assay: Cigarette smoke induced COPD model, pulse oximetry; format: in vivo, mouse; conditions: after two months of cigarette smoke exposure, compared with untreated controls; FIG. 8
Method: As a model for chronic obstructive pulmonary disease (COPD), mice were exposed to cigarette smoke.
The effect of a senolytic agent on the mice exposed to smoke is assessed by senescent cell clearance, lung function, and histopathology.
The mice used in this study include the 3MR strain, described in US 2017/0027139 A1 and in Demaria et al., Dev Cell. 2014 Dec. 22; 31(6): 722-733. The 3MR mouse has a transgene encoding thymidine kinase that converts the prodrug ganciclovir (GCV) to a compound that is lethal to cells. The enzyme in the transgene is placed under control of the p16 promoter, which causes it to be specifically expressed in senescent cells. Treatment of the mice with GCV eliminates senescent cells.
Other mice used in this study include the INK-ATTAC strain, described in US 2015/0296755 A1 and in Baker et al., Nature 2011 Nov. 2; 479(7372):232-236. The INK-ATTAC mouse has a transgene encoding switchable caspase 8 under control of the p16 promoter. The caspase 8 can be activated by treating the mice with the switch compound AP20187, whereupon the caspase 8 directly induces apoptosis in senescent cells, eliminating them from the mouse.
To conduct the experiment, six-week-old 3MR (n=35) or INK-ATTAC (n=35) mice were chronically exposed to cigarette smoke generated from a Teague TE-10 system, an automatically-controlled cigarette smoking machine that produces a combination of side-stream and mainstream cigarette smoke in a chamber, which is transported to a collecting and mixing chamber where varying amounts of air is mixed with the smoke mixture. The COPD protocol was adapted from the COPD core facility at Johns Hopkins University (Rangasamy et al., 2004, J. Clin. Invest. 114:1248-1259; Yao et al., 2012, J. Clin. Invest. 122:2032-2045).
Mice received a total of 6 hours of cigarette smoke exposure per day, 5 days a week for 6 months. Each lighted cigarette (3R4F research cigarettes containing 10.9 mg of total particulate matter (TPM), 9.4 mg of tar, and 0.726 mg of nicotine, and 11.9 mg carbon monoxide per cigarette [University of Kentucky, Lexington, Ky.]) was puffed for 2 seconds and once every minute for a total of 8 puffs, with the flow rate of 1.05 L/min, to provide a standard puff of 35 cm3. […] The smoke chamber atmosphere was monitored for total suspended particulates (80-120 mg/m3) and carbon monoxide (350 ppm). […]
After two months of cigarette smoke (CS) exposure, lung function was assessed by monitoring oxygen saturation using the MouseSTAT PhysioSuite™ pulse oximeter (Kent Scientific). […] Mice were monitored for 30 seconds and the average peripheral capillary oxygen saturation (SpO2) measurement over this duration was calculated.

[2] = test system: C57BL/6J mice with osteoarthritis induced by ACL surgery; assay: Osteoarthritis model: anterior cruciate ligament surgery, intra-articular treatment; format: in vivo, mouse
Method: The model was implemented as follows. C57BL/6J mice underwent surgery to cut the anterior cruciate ligament of one rear limb to induce osteoarthritis in the joint of that limb. During week 3 and week 4 post-surgery, the mice were treated with 5.8 μg of Nutlin-3A (n=7) per operated knee by intra-articular injection, q.o.d. for 2 weeks. At the end of 4 weeks post-surgery, joints of the mice were monitored for presence of senescent cells, assessed for function, monitored for markers of inflammation, and underwent histological assessment.
Two control groups of mice were included in the studies performed: one group comprising C57BL/6J or 3MR mice that had undergone a sham surgery (n=3) (i.e., surgical procedures followed except for cutting the ACL) and intra-articular injections of vehicle parallel to the GCV (ganciclovir) treated group; and one group comprising C57BL/6J or 3MR mice that had undergone an ACL surgery and received intra-articular injections of vehicle (n=5) parallel to the GCV-treated group. RNA from the operated joints of mice from the Nutlin-3A treated mice was analyzed for expression of SASP factors (mmp3, IL-6) and senescence markers (p16). qRT-PCR was performed to detect mRNA levels.
Function of the limbs was assessed 4 weeks post-surgery by a weight bearing test to determine which leg the mice favored. The mice were allowed to acclimate to the chamber on at least three occasions prior to taking measurements. Mice were maneuvered inside the chamber to stand with one hind paw on each scale. The weight that was placed on each hind limb was measured over a three second period. At least three separate measurements were made for each animal at each time point. The results were expressed as the percentage of the weight placed on the operated limb versus the contralateral unoperated limb.

[3] = test system: LDLR-/- mice fed a high fat diet; assay: Atherosclerosis model, LDLR-/- mice on a high fat diet, systemic treatment; format: in vivo, mouse
Method: This example illustrates the testing of an MDM2 inhibitor in a mouse model for treatment of atherosclerosis. The test compounds are administered systemically rather than locally. The model is done in an LDLR−/− strain of mice, which are deficient in the receptor for low-density lipoprotein. The experiments described here can be adapted mutatis mutandis to test and develop other types of inhibitors for use in clinical therapy.
Two groups of LDLR−/− mice (10 weeks) are fed a high fat diet (HFD) (Harlan Teklad TD.88137) having 42% calories from fat, beginning at Week 0 and throughout the study. Two groups of LDLR−/− mice (10 weeks) are fed normal chow (−HFD). From weeks 0-2, one group of HFD mice and −HFD mice are treated with Nutlin-3A (25 mg/kg, intraperitoneally). One treatment cycle is 14 days treatment, 14 days off. Vehicle is administered to one group of HFD mice and one group of −HFD mice. At week 4 (timepoint 1), one group of mice are sacrificed and to assess presence of senescent cells in the plaques. For the some of the remaining mice, Nutlin-3A and vehicle administration is repeated from weeks 4-6. At week 8 (timepoint 2), the mice are sacrificed and to assess presence of senescent cells in the plaques. The remaining mice are treated with Nutlin-3A or vehicle from weeks 8-10. At week 12 (timepoint 3), the mice are sacrificed and to assess the level of plaque and the number of senescent cells in the plaques.
Plasma lipid levels were measured in LDLR−/− mice fed a HFD and treated with Nutlin-3A or vehicle at timepoint 1 as compared with mice fed a −HFD (n=3 per group). Plasma was collected mid-afternoon and analyzed for circulating lipids and lipoproteins.
At the end of timepoint 1, LDLR−/− mice fed a HFD and treated with Nutlin-3A or vehicle were sacrificed (n=3, all groups), and the aortic arches were dissected for RT-PCR analysis of SASP factors and senescent cell markers. Values were normalized to GAPDH and expressed as fold-change versus age-matched, vehicle-treated LDLR−/− mice on a normal diet.
At the end of timepoint 2, LDLR−/− mice fed a HFD and treated with Nutlin-3A or vehicle (n=3 for all groups) were sacrificed, and aortic arches were dissected for RT-PCR analysis of SASP factors and senescent cell markers. Values were normalized to GAPDH and expressed as fold-change versus age-matched, vehicle-treated LDLR−/− mice on a normal diet.
At the end of timepoint 3, LDLR−/− mice fed a HFD and treated with Nutlin-3A or vehicle (n=3 for all groups) were sacrificed, and aortas were dissected and stained with Sudan IV to detect the presence of lipid. Body composition of the mice was analyzed by MRI, and circulating blood cells were counted by Hemavet™.

[4] = test system: primary cells from patients with B-cell malignancies; conditions: in vitro studies; cited from earlier work
[5] = test system: cancer cells in human patients; conditions: cited from earlier work

SMILES: CC1(C)CCC(c2ccc(Cl)cc2)=C(CN2CCN(c3ccc(C(=O)NS(=O)(=O)c4ccc(N[C@H](CCN5CCOCC5)CSc5ccccc5)c(S(=O)(=O)C(F)(F)F)c4)cc3)CC2)C1 [ABT-263]
peripheral capillary oxygen saturation (SpO2) levels [1]: statistically significant increases

lymphocyte counts versus vehicle treated mice ([3]; timepoint 3 (week 12), Hemavet): equivalent
platelet counts versus vehicle treated mice ([3]; timepoint 3 (week 12), Hemavet): equivalent
SMILES: COc1ccc(C2=N[C@@H](c3ccc(Cl)cc3)[C@@H](c3ccc(Cl)cc3)N2C(=O)N2CCNC(=O)C2)c(OC(C)C)c1 [Nutlin-3A]
presence of senescent cells in the joint ([2]; 5.8 μg per operated knee intra-articular, 4 weeks post-surgery): cleared senescent cells from the joint
weight bearing test: weight placed on the operated limb versus the contralateral unoperated limb ([2]; 4 weeks post-surgery, effect = favoring the unoperated hind limb, FIG. 6A): abrogated this effect
histopathology of joint tissue: destruction of the proteoglycan layer ([2]; effect = proteoglycan layer destroyed by ACL surgery, FIGS. 6B-6D): completely abrogated this effect
expression of p16 in the tissue (mRNA, qRT-PCR) ([2]; operated joints, 5.8 μg per operated knee intra-articular q.o.d. for 2 weeks, 4 weeks post-surgery, FIG. 5A): reduced the expression back to below the level of the controls
expression of IL-6 in the tissue (mRNA, qRT-PCR) ([2]; operated joints, 5.8 μg per operated knee intra-articular q.o.d. for 2 weeks, 4 weeks post-surgery, FIG. 5B): reduced the expression back to below the level of the controls
expression of MMP13 in the tissue (mRNA, qRT-PCR) ([2]; operated joints, 5.8 μg per operated knee intra-articular q.o.d. for 2 weeks, 4 weeks post-surgery, FIG. 5C): reduced the expression back to below the level of the controls
peripheral capillary oxygen saturation (SpO2) levels [1]: statistically significant increases
expression of SASP factors and senescent cell markers MMP3, MMP13, PAI1, p21, IGFBP2, IL-1A, IL-1B in the aortic arch (RT-PCR) ([3]; 25 mg/kg intraperitoneally, timepoint 1 (week 4), after one treatment cycle): reduced expression of several SASP factors and senescent cell markers
expression of SASP factors and senescent cell markers in the aortic arch (RT-PCR) ([3]; 25 mg/kg intraperitoneally, timepoint 2 (week 8), multiple treatment cycles): reduced expression of most markers
reduction of the surface area covered by plaques in the descending aorta (Sudan IV) ([3]; 25 mg/kg intraperitoneally, timepoint 3 (week 12), FIG. 9): about 45%
body fat composition of mice fed the high fat diet (MRI) ([3]; timepoint 3 (week 12)): decreased
mass of mice fed the high fat diet ([3]; timepoint 3 (week 12)): decreased

SMILES: CC[C@H](C(=O)N1CCCC[C@H]1C(=O)O[C@H](CCc1ccc(OC)c(OC)c1)c1cccc(OCC(=O)NCC(CNC(=O)COc2cccc([C@@H](CCc3ccc(OC)c(OC)c3)OC(=O)[C@@H]3CCCCN3C(=O)[C@@H](CC)c3cc(OC)c(OC)c(OC)c3)c2)CN(C)C)c1)c1cc(OC)c(OC)c(OC)c1 [AP2018]
peripheral capillary oxygen saturation (SpO2) levels [1]: statistically significant increases

SMILES: CN(C)CC[C@H](CSc1ccccc1)Nc1ccc(S(=O)(=O)NC(=O)c2ccc(N3CCN(Cc4ccccc4-c4ccc(Cl)cc4)CC3)cc2)cc1[N+](=O)[O-] [ABT-737]
sensitivity of primary cells from patients with B-cell malignancies [4]: sensitive
efficacy against cancer cells in human patients [5]: effective against some types of cancer cells

SMILES: Nc1nc(O)c2ncn(COC(CO)CO)c2n1 [ganciclovir]
peripheral capillary oxygen saturation (SpO2) levels [1]: statistically significant increases
